Reference: patent US9156801B2, “2-substituted oleanolic acid derivative, method preparing for same, and application thereof” (HANGZHOU BENSHENG PHARMACEUTICAL CO., LTD., priority 2011, dated 2015)
Values after ≈ are worked out from the molar mass of the structure shown.

Experiments:
U87 MG cell line = experiment: solid tumor cell growth inhibition, MTT; assay type: cell-based; settings: Homo sapiens, U-87 MG, 72 h; for inhibition at 16 µg/mL: 16 μg/mL compound, read-out: IR (cell proliferation inhibition rate)
Method: (§1) Hep-2 (laryngeal carcinoma), A549 (human lung cancer), CaES-17 (esophageal cancer cell), PC-3 (prostate cancer), CNE (nasopharyngeal carcinoma cell), and SK-OV-3 (ovarian cancer cell), all of which are purchased from China Center For Type Culture Collection; RKO (human colon adenocarcinoma cell), MGC 803 (human gastric cancer cell), MG63 (osteosarcoma) and U87 MG (malignant glioma cell), all of which are purchased from Fuxiang Bio-tech Co. Ltd., Shanghai, China; PANC-1 (pancreatic cancer), Hep G2 (human liver cancer cell), Becap37 (human breast cancer cell), and Hela (human cervical cancer cell), all of which are donated by Cancer Research Institute of Zhejiang University, China.
(§2) Obtaining 4000 well-growing human solid tumor cells and inoculating them into wells of a 96-well cell culture plate. The culture medium is DMEM High Glucose cell culture medium containing 10% fetal bovine serum. The plate is placed in a carbon dioxide cell incubator (5% CO2) at 37° C. for 24 hours. After adding the 2-substituted oleanolic acid derivatives of different concentrations and mixing uniformly, the plate is placed in a carbon dioxide cell incubator (5% CO2) at 37° C. and incubated for 72 hours. Then the relative number of the living cells is determined by MTT method. In this experiment, the cell proliferation inhibition rate in control group (not treated with any compound) is set as 0%.

PANC-1 cell line = experiment: solid tumor cell growth inhibition, MTT; assay type: cell-based; settings: Homo sapiens; for IC50: PANC-1, 72 h; for inhibition at 16 µg/mL: PANC-1, 16 μg/mL compound, 72 h, read-out: IR (cell proliferation inhibition rate)
Method: as §1, §2

Hep-2 cell line = experiment: solid tumor cell growth inhibition, MTT; assay type: cell-based; settings: Homo sapiens; for IC50: HEp-2, 72 h; for inhibition at 16 µg/mL: Hep-2, 16 μg/mL compound, 72 h, read-out: IR (cell proliferation inhibition rate)
Method: as §1, §2

CaES-17 cell line = experiment: solid tumor cell growth inhibition, MTT; assay type: cell-based; settings: Homo sapiens, CaEs17; for inhibition at 16 µg/mL: CaES-17, 16 μg/mL compound, 72 h, read-out: IR (cell proliferation inhibition rate); for IC50: CaES-17, 72 h
Method: as §1, §2

MGC 803 cell line = experiment: solid tumor cell growth inhibition, MTT; assay type: cell-based; settings: Homo sapiens; for inhibition at 16 µg/mL: MGC 803, 16 μg/mL compound, 72 h, read-out: IR (cell proliferation inhibition rate); for IC50: MGC 803, 72 h
Method: as §1, §2

Hela cell line = experiment: solid tumor cell growth inhibition, MTT; assay type: cell-based; settings: Homo sapiens, 72 h; for IC50: HeLa; for inhibition at 16 µg/mL: Hela, 16 μg/mL compound, read-out: IR (cell proliferation inhibition rate)
Method: as §1, §2

MG-63 cell line = experiment: solid tumor cell growth inhibition, MTT; assay type: cell-based; settings: Homo sapiens; for IC50: MG-63, 72 h; for inhibition at 16 µg/mL: MG-63, 16 μg/mL compound, 72 h, read-out: IR (cell proliferation inhibition rate)
Method: as §1, §2

CNE cell line = experiment: solid tumor cell growth inhibition, MTT; assay type: cell-based; settings: Homo sapiens, 72 h; for inhibition at 16 µg/mL: 16 μg/mL compound, read-out: IR (cell proliferation inhibition rate)
Method: as §1, §2

A549 cell line = experiment: solid tumor cell growth inhibition, MTT; assay type: cell-based; settings: Homo sapiens; for IC50: A549, 72 h; for inhibition at 16 µg/mL: A549, 16 μg/mL compound, 72 h, read-out: IR (cell proliferation inhibition rate)
Method: as §1, §2

RKO cell line = experiment: solid tumor cell growth inhibition, MTT; assay type: cell-based; settings: Homo sapiens, 72 h; for inhibition at 16 µg/mL: 16 μg/mL compound, read-out: IR (cell proliferation inhibition rate)
Method: as §1, §2

SK-OV-3 cell line = experiment: solid tumor cell growth inhibition, MTT; assay type: cell-based; settings: Homo sapiens; for IC50: SK-OV-3, 72 h; for inhibition at 16 µg/mL: SK-OV-3, 16 μg/mL compound, 72 h, read-out: IR (cell proliferation inhibition rate)
Method: as §1, §2

PC-3 cell line = experiment: solid tumor cell growth inhibition, MTT; assay type: cell-based; settings: Homo sapiens; for IC50: PC-3, 72 h; for inhibition at 16 µg/mL: PC-3, 16 μg/mL compound, 72 h, read-out: IR (cell proliferation inhibition rate)
Method: as §1, §2

Becap37 cell line = experiment: solid tumor cell growth inhibition, MTT; assay type: cell-based; settings: Homo sapiens; for inhibition at 16 µg/mL: Becap37, 16 μg/mL compound, 72 h, read-out: IR (cell proliferation inhibition rate); for IC50: Becap37, 72 h
Method: as §1, §2

NB4 cell line = experiment: leukemia cell growth inhibition, MTT; assay type: cell-based; settings: Homo sapiens, NB-4; for inhibition at 16 µg/mL: NB4, 16 μg/mL compound, 72 h, read-out: IR (cell proliferation inhibition rate); for IC50: NB4, 72 h
Description: (§3) Leukemia cell lines: leukemia cell lines: K562/adr (drug-resistant, chronic myeloid leukemia, CML), NB4 (acute promyelocytic leukemia, AML), Kasumi-1 (acute myeloid leukemia M2 type, AML-M2), Jurkat (acute lymphoblastic leukemia, ALL), all of which are donated by Cancer Research Institute of Zhejiang University, China; and H9 (acute lymphoblastic leukemia, ALL), which is purchased from China Center for Type Culture Collection (CCTCC).
(§4) Obtaining 6000 well-growing leukemia cells and inoculating them into wells of a 96-well cell culture plate. The culture medium is the 1640 cell culture medium containing 10% fetal bovine serum. After adding the 2-substituted oleanolic acid derivatives of different concentrations and mixing uniformly, placing the plate in a carbon dioxide cell incubator (5% CO2) at 37° C. and incubated for 72 hours. Then the relative number of viable cells is determined by MTT method. In this experiment, cell proliferation inhibition rate in control group (not treated with any compound) is set as 0%.

Jurkat cell line = experiment: leukemia cell growth inhibition, MTT; assay type: cell-based; settings: Homo sapiens, 72 h; for inhibition at 16 µg/mL: 16 μg/mL compound, read-out: IR (cell proliferation inhibition rate)
Description: as §3, §4

H9 cell line = experiment: leukemia cell growth inhibition, MTT; assay type: cell-based; settings: Homo sapiens; for IC50: H9, 72 h; for inhibition at 16 µg/mL: H9, 16 μg/mL compound, 72 h, read-out: IR (cell proliferation inhibition rate)
Description: as §3, §4

K562/adr cell line = experiment: leukemia cell growth inhibition, MTT; assay type: cell-based; settings: Homo sapiens, 72 h; for IC50: K562/Adr; for inhibition at 16 µg/mL: K562/adr, 16 μg/mL compound, read-out: IR (cell proliferation inhibition rate)
Description: as §3, §4

Kasumi-1 cell line = experiment: leukemia cell growth inhibition, MTT; assay type: cell-based; settings: Homo sapiens; for inhibition at 16 µg/mL: Kasumi-1, 16 μg/mL compound, 72 h, read-out: IR (cell proliferation inhibition rate); for IC50: Kasumi-1, 72 h
Description: as §3, §4

RPMI8226 cell line = experiment: multiple myeloma cell growth inhibition, MTT; assay type: cell-based; settings: Homo sapiens, RPMI-8226; for inhibition at 16 µg/mL: RPMI8226, 16 μg/mL compound, 72 h, read-out: IR (cell proliferation inhibition rate); for IC50: RPMI8226, 72 h
Method: Multiple myeloma cell lines: RPMI8226 (multiple myeloma), purchased from Fuxiang Bio-tech Co. Ltd., Shanghai, China.
Obtaining 6000 well-growing cells as above and inoculating them into wells of a 96-well cell culture plate. The culture medium is the 1640 cell culture medium containing 10% fetal bovine serum. After adding the 2-substituted oleanolic acid derivatives of different concentrations and mixing uniformly, placing the plate in a carbon dioxide cell incubator (5% CO2) at 37° C. and incubated for 72 hours. Then the relative number of viable cells is determined by MTT method. In this experiment, cell proliferation inhibition rate in control group (not treated with any compound) is set as 0%.

Hep G2 cell line = experiment: solid tumor cell growth inhibition, MTT; assay type: cell-based, human; settings: Homo sapiens; for inhibition at 16 µg/mL: HepG2, 72 h, Hep G2, 16 μg/mL compound, 72 h, read-out: IR (cell proliferation inhibition rate); for IC50: HepG2, Hep G2, 72 h
Method: as §1, §2

Row | IC50 (U87 MG cell line) | IC50 (PANC-1 cell line) | IC50 (Hep-2 cell line) | IC50 (CaES-17 cell line) | IC50 (MGC 803 cell line) | IC50 (Hela cell line) | IC50 (MG-63 cell line) | IC50 (CNE cell line) | IC50 (A549 cell line) | IC50 (RKO cell line) | Compound | inhibition at 16 µg/mL (U87 MG cell line) | inhibition at 16 µg/mL (PANC-1 cell line) | inhibition at 16 µg/mL (Hep-2 cell line) | inhibition at 16 µg/mL (CaES-17 cell line) | inhibition at 16 µg/mL (MGC 803 cell line) | inhibition at 16 µg/mL (Hela cell line) | inhibition at 16 µg/mL (MG-63 cell line) | inhibition at 16 µg/mL (CNE cell line) | inhibition at 16 µg/mL (A549 cell line) | inhibition at 16 µg/mL (RKO cell line) | also measured
1 | 2.54 µg/mL (≈ 4.26 µM) | 5.02 µg/mL (≈ 8.41 µM) | 5.99 µg/mL (≈ 10 µM) | 2.97 µg/mL (≈ 4.98 µM) | 2.84 µg/mL (≈ 4.76 µM) | 3.47 µg/mL (≈ 5.81 µM) | 2.72 µg/mL (≈ 4.56 µM) | 3.89 µg/mL (≈ 6.52 µM) | 2.06 µg/mL (≈ 3.45 µM) | 3.29 µg/mL (≈ 5.51 µM) | COC(=O)[C@]12CCC(C)(C)CC1C1=CCC3[C@@]4(C)CC(C(=O)NCCCN(C)C)C(=O)C(C)(C)C4CC[C@@]3(C)[C@]1(C)CC2 (some centres unmarked) [BS-OA-042] | 98.6% | 99.4% | 95.2% | 98.1% | 99.2% | 98.9% | 98.2% | 99.5% | 96.9% | 100% | IC50 (SK-OV-3 cell line): 3.63 µg/mL (≈ 6.08 µM); inhibition at 16 µg/mL (SK-OV-3 cell line): 97.9%; IC50 (PC-3 cell line): 4.78 µg/mL (≈ 8.01 µM); inhibition at 16 µg/mL (PC-3 cell line): 100%; inhibition at 16 µg/mL (Becap37 cell line): 98.7%; IC50 (Becap37 cell line): 4.32 µg/mL (≈ 7.24 µM); inhibition at 16 µg/mL (NB4 cell line): 100%; IC50 (NB4 cell line): 2.63 µg/mL (≈ 4.41 µM); inhibition at 16 µg/mL (Jurkat cell line): 99%; IC50 (Jurkat cell line): 2.43 µg/mL (≈ 4.07 µM); IC50 (H9 cell line): 3.12 µg/mL (≈ 5.23 µM); inhibition at 16 µg/mL (H9 cell line): 95.9%; IC50 (K562/adr cell line): 0.64 µg/mL (≈ 1.07 µM); inhibition at 16 µg/mL (K562/adr cell line): 98.4%; inhibition at 16 µg/mL (Kasumi-1 cell line): 99.1%; IC50 (Kasumi-1 cell line): 4.1 µg/mL (≈ 6.87 µM); inhibition at 16 µg/mL (RPMI8226 cell line): 98.9%; IC50 (RPMI8226 cell line): 0.68 µg/mL (≈ 1.14 µM); inhibition at 16 µg/mL (Hep G2 cell line): > 96%; IC50 (Hep G2 cell line): 2.36 µg/mL (≈ 3.95 µM)
2 | 2.56 µg/mL (≈ 4.19 µM) | 4.73 µg/mL (≈ 7.74 µM) | 5.5 µg/mL (≈ 9 µM) | 1.91 µg/mL (≈ 3.13 µM) | 2.56 µg/mL (≈ 4.19 µM) | 4.19 µg/mL (≈ 6.86 µM) | 2.2 µg/mL (≈ 3.6 µM) | 3.74 µg/mL (≈ 6.12 µM) | 2.83 µg/mL (≈ 4.63 µM) | 2 µg/mL (≈ 3.27 µM) | CCN(CC)CCNC(=O)C1C[C@@]2(C)C(CC[C@]3(C)C2CC=C2C4CC(C)(C)CC[C@]4(C(=O)OC)CC[C@]23C)C(C)(C)C1=O (some centres unmarked) [BS-OA-012] | 98.5% | 100% | 99.9% | 99.1% | 100% | 96.9% | 100% | 98.8% | 97.4% | 97.6% | IC50 (SK-OV-3 cell line): 3.77 µg/mL (≈ 6.17 µM); inhibition at 16 µg/mL (SK-OV-3 cell line): 98.9%; IC50 (PC-3 cell line): 5.08 µg/mL (≈ 8.32 µM); inhibition at 16 µg/mL (PC-3 cell line): 99.7%; inhibition at 16 µg/mL (Becap37 cell line): 98.4%; IC50 (Becap37 cell line): 4.42 µg/mL (≈ 7.23 µM); inhibition at 16 µg/mL (NB4 cell line): 99.2%; IC50 (NB4 cell line): 2.79 µg/mL (≈ 4.57 µM); inhibition at 16 µg/mL (Jurkat cell line): 97%; IC50 (Jurkat cell line): 2.26 µg/mL (≈ 3.7 µM); IC50 (H9 cell line): 3.05 µg/mL (≈ 4.99 µM); inhibition at 16 µg/mL (H9 cell line): 95%; IC50 (K562/adr cell line): 1.09 µg/mL (≈ 1.78 µM); inhibition at 16 µg/mL (K562/adr cell line): 99%; inhibition at 16 µg/mL (Kasumi-1 cell line): 99.3%; IC50 (Kasumi-1 cell line): 3.18 µg/mL (≈ 5.21 µM); inhibition at 16 µg/mL (RPMI8226 cell line): 99%; IC50 (RPMI8226 cell line): 0.74 µg/mL (≈ 1.21 µM); inhibition at 16 µg/mL (Hep G2 cell line): > 96%; IC50 (Hep G2 cell line): 2.36 µg/mL (≈ 3.86 µM)
